Like-named read-outs stand apart in the source and are kept apart here.
Experiments:
Primary T-cells [1] = experiment: Primary T-cell cytokine production (αCD3/αCD28): IFNg; type: cell-based, human; details: read-out: 1° T-Cell IFNg IC50
Method: (§1) 2E8-4E8 PBMC or proliferating T cells grown in rIL-2 from healthy human donors were suspended in PBS were spun down (1500 rpm, 8-10 minutes) and resuspended in 100 ml RPMI Complete media (1% Pen-Strep, 1% L-Glutamine, 10 mM HEPES). The cells were plated in T175 flasks (37° C., 5% CO2) and monocytes were allowed to adhere for 2-3 hours. After monocyte attachment, non-adherent cells were harvested, counted by hemocytometer, washed several times with PBS then resuspended in Yssels Complete Media (Modified IMDM Media with 1% Human AB Serum, 1% Pen-Strep, 1% L-Glutamine, 10 mM HEPES) at […]. 90 uL of the cell dilution were then added to compounds diluted to 2× in Yssel's media and incubated for 30 minutes at 37° C. (5% CO2). After this preincubation step the compound/cell mixture was transferred to stimulation plates, as described below.
(§2) Stimulation plates were prepared by coating 96 well plates with 5 μg/ml αCD3 (BD PharMingen, Catalog #555336)+10 μg/ml αCD28 (Beckman Coulter, Catalog #IM1376) in PBS (no Ca^2+/Mg^2+) at 37° C. (5% CO2) for at 3-5 hours. After incubation with the stimulation antibodies, the cocktail was removed and the plates washed 3 times with PBS prior to addition of the primary T cell/compound mixture.
(§3) The compound/cell mixture was transferred to the stimulation plates and incubated for 18 hr at 37° C. (5% CO2). After the cell stimulation, ˜150 μl supernatant were transferred from each well into 96-well filter plates (Coming PVDF Filter Plates) spun down (2000 rpm, 2-3 minutes) and either used immediately for ELISA or LUMINEX measurements or frozen down at −80° C. for future use.
(§4) Luminex immunoassay multiplexing for TNF, IL-2, GMSCF, IL-4 and IFNg was performed essentially as described by the manufacturer (Upstate Biotechnology). Essentially 50 uL of sample was diluted into 50 uL assay diluent and 50 uL incubation buffer, then incubated with 100 uL of the diluted detection antibody for 1 hr at RT in the dark. The filter plate was washed 2× in Wash Buffer, then incubated with 100 uL of the diluted secondary reagent (SAV-RPE) for 30 min at RT in the dark. Finally the plates were washed 3 times and bead identification and RPE fluorescent measured by the Luminex instrument.
(§5) Varied concentrations of compound were compared to solvent only to determine the inhibition of T-cell activation IC50 of each compound.

Primary T-cells [2] = experiment: Primary T-cell cytokine production (αCD3/αCD28): GMSCF; type: cell-based, human; details: read-out: 1° T-Cell GMSCF IC50
Method: as §1, §2, §3, §4, §5

Primary T-cells [3] = experiment: Primary T-cell cytokine production (αCD3/αCD28): TNF; type: cell-based, human; details: read-out: 1° T-Cell TNF IC50
Method: as §1
(5% CO2) for at 3-5 hours. After incubation with the stimulation antibodies, the cocktail was removed and the plates washed 3 times with PBS prior to addition of the primary T cell/compound mixture.
as §3, §4, §5

[4] = test system: basophil cells (human peripheral blood); experiment: Basophil ionomycin activation: histamine release assay; type: cell-based
Method in brief: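 Dextran-sedimented leukocytes from peripheral blood of dust-mite-allergic human donors were incubated with compound (8 concentrations, 0.5% DMSO, triplicate) and then stimulated with 2 μM ionomycin stock (20 μl added) for 30 min at 37° C. Histamine released into the supernatant was measured by ELISA.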

[5] = test system: bone marrow derived mast cells (BMMC); experiment: BMMC high cell density IgE activation: hexosaminidase; type: cell-based, mouse
[6] = test system: cultured human mast cells (CHMC); experiment: CHMC low cell density IgE activation: tryptase assay; type: cell-based
Method in brief: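 Read-out: tryptase released into supernatant, measured by substrate turnover over 30 min at RT. Low-density CHMC (1000-1500 cells/well, per donor degranulation activity) in MT buffer, 1 hr at 37° C, then anti-IgE challenge 30 min at 37° C.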

[7] = basophils, ionomycin activation, histamine release, read-out: Basophils Ionomycin Histamine IC50
[8] = High Density, read-out: BMMC anti-IgE hexos
[9] = Low Density CHMC, anti-IgE activation, tryptase release, read-out: CHMC anti-IgE Tryptase IC50
[10] = high cell density, read-out: BMMC anti-IgE Hexos.
[11] = low cell density, read-out: CHMC anti-IgE Tryptase

IC50 (Primary T-cells [1]) [nM]	IC50 (Primary T-cells [2]) [nM]	IC50 (Primary T-cells [3]) [nM]	Compound	IC50 [4, 7] [nM]	also measured
2890	1570	1500	CNC(=O)COc1cccc(Nc2ncc(F)c(Nc3ccc4c(n3)NC(=O)CO4)n2)c1 [Compound R921304]	–	–
–	–	–	COc1ccc(Nc2ncc(F)c(Nc3ccc(OC)c(OC)c3)n2)cc1OC [Compound R926110]	> 10000	IC50 [5, 8]: 1000 nM; IC50 [6, 9]: 1070 nM
–	–	–	Fc1cnc(Nc2ccc3c(c2)OCCO3)nc1Nc1ccc2c(c1)OCCO2 [Compound R926109]	> 10000	IC50 [5, 8]: 600 nM; IC50 [6, 9]: 538 nM
–	–	–	CNC(=O)COc1cccc(Nc2ncc(F)c(Nc3ccc4c(c3)NCCO4)n2)c1 [Compound R921219]	> 10000	–
916	1120	600	COc1cc(Nc2ncc(F)c(Nc3ccc4c(c3)NC(=O)C(C)(C)O4)n2)cc(OC)c1 [Compound R927050]	–	IC50 [5, 10]: 103 nM; IC50 [6, 11]: 73 nM
4310	3200	2990	CNC(=O)COc1cccc(Nc2ncc(F)c(Nc3ccc(OC(F)(F)F)c(Cl)c3)n2)c1 [Compound R920410]	–	–
> 10000	> 10000	–	CC1(C)Oc2ccc(Nc3nc(Nc4cc(Cl)cc(Cl)c4)ncc3F)cc2NC1=O [Compound R927064]	–	IC50 [5, 10]: 5 nM; IC50 [6, 11]: 212 nM
1670	1610	99.2	CNC(=O)COc1cccc(Nc2ncc(F)c(Nc3ccc4c(n3)NC(=O)C(C)(C)O4)n2)c1 [Compound R940347]	–	–
–	–	–	COc1ccc(Nc2ncc(F)c(Nc3cccc(O)c3)n2)cc1OC [Compound R926113]	> 10000	IC50 [5, 8]: 650 nM; IC50 [6, 9]: 413 nM
–	–	–	OCCCn1ncc2cc(Nc3ncc(F)c(Nc4ccc(Cl)c(Cl)c4)n3)ccc21 [Compound R935391]	–	IC50 [5, 10]: 250 nM; IC50 [6, 11]: 212 nM
–	–	–	Oc1cccc(Nc2ncc(F)c(Nc3cccc(O)c3)n2)c1 [Compound R921218]	> 10000	IC50 [5, 8]: 133 nM
2470	2450	–	CC1(C)Oc2ccc(Nc3ncc(F)c(Nc4ccc5c(c4)NC(=O)C(C)(C)O5)n3)cc2NC1=O [Compound R940350]	–	–
1280	1180	796	CNC(=O)COc1cccc(Nc2ncc(F)c(Nc3ccc4c(c3)NC(=O)C(F)(F)O4)n2)c1 [Compound R921303]	–	–
–	–	–	CNC(=O)COc1cccc(Nc2ncc(F)c(Nc3cccc(O)c3)n2)c1 [Compound R926508]	> 10000	–
–	–	–	CC1(C)Oc2ccc(Nc3nc(Nc4ccc5cn[nH]c5c4)ncc3F)cc2NC1=O [Compound R940363]	–	IC50 [6, 11]: 48 nM

Compound	IC50 (Primary T-cells [1]) [nM]	IC50 (Primary T-cells [2]) [nM]	IC50 (Primary T-cells [3]) [nM]	IC50 [4, 7] [nM]	also measured
Nc1cccc(Nc2ncc(F)c(Nc3cccc(N)c3)n2)c1 [Compound R921302]	3900	3210	1630	–	IC50 ([4]; read-out: Basophils Ionomycin Histamine): > 10000 nM

Source: patent US8158621B2, “Methods of treating or preventing autoimmune diseases with 2,4-pyrimidinediamine compounds” (Rigel Pharmaceuticals, Inc., priority 2002, dated 2012)
